Measurements reported in patent US20220289753A1, “SHP2 INHIBITORS” (IRBM S.P.A., priority 2019, published 2022).
Where two headings read alike, the source gives them in different places.

Assays:
[1] = biological target: T1, SHP-2 enzyme (Met1-Leu525) (Homo sapiens, UniProt Q06124); experiment: SHP2 inhibition enzymatic assay (DiFMUP substrate, IRS1 peptide activation); type: biochemical; details: SHP2 wt; activated by 500 nM IRS1 peptide; 75 μM DiFMUP substrate
T1 construct: synthetized by Origene, Met1-Leu525, cat #TP750155; purchased Origene TP750155
T1 sequence (Q06124 1-525): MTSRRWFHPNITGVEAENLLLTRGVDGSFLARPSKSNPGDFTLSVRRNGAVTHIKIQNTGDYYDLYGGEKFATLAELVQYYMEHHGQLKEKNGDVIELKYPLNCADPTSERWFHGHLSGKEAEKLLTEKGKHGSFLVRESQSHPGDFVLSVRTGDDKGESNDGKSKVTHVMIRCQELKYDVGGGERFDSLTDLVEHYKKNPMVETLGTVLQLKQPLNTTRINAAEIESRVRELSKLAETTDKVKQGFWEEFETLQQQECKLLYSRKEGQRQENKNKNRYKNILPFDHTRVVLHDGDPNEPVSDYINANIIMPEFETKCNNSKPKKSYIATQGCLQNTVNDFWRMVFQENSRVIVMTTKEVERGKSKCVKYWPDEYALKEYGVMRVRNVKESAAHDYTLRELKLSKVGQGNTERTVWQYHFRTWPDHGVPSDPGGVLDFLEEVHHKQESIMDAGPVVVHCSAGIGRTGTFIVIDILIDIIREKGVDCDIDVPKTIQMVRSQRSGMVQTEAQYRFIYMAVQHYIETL
How it was run: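 SHP-2 (Met1-Leu525, 0.5 nM final) preincubated 30 min with compounds and IRS1 activating peptide in HEPES pH 7.2 buffer with NaCl, KCl, EDTA, tween-20, 5 mM DTT. DiFMUP then added for 30 min at room temperature and fluorescence read. IC50 from four-parameter logistic fit of % inhibition.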

[2] = system: ERK phosphorylation in KYSE-520 cells; experiment: Phospho-ERK cellular assay (Advanced phospho-ERK1/2 (Thr202/Tyr204) TR-FRET kit); type: cell-based; details: Homo sapiens, KYSE-520, 2 h, read-out: pERK IC50
Experimental: Phospho-ERK Cellular Assay
ERK phosphorylation was detected using the “Advanced phospho-ERK1/2 (Thr202/Tyr204)” TR-FRET kit (Cisbio, Cat #64AERPEG/H), following the manufacturer reagents and instructions. […] After an overnight incubation, cells were treated with DMSO serial diluted compounds and incubated for 2 h at 37° C. After incubation, 2 μL/well of 4× Lysis Buffer (Cisbio 64KL1FDF), were added and incubated with cells for 30 min on gentle shaking. Finally, lysates were added with 2 μL/well of Eu cryptate (donor) and D2 (acceptor) conjugated antibodies (as provided by the Cisbio kit #64AERPEG/H) diluted 1:100 in Detection Buffer (as provided by the Cisbio kit #64AERPEG/H). Plates were then sealed and incubated at room temperature in the dark. After an overnight incubation, the TR-FRET signal was detected on a suitable reader (Envision, PerkinElmer). The lower the TR-FRET signal the higher the higher the SHP2 inhibition in cells. […] The percentage activity is fitted against the compound dilutions with a four-parameter logistic regression. The inflection point (i.e. the concentration at which half-maximal inhibition is achieved) is the IC50.

[3] = KYSE-520 cells, 2 h at 37° C., TR-FRET

## COc1ccc2c(c1)[C@@H](N)C1(CCN(c3nc4nc(Sc5ccnc(N)c5Cl)cnc4[nH]3)CC1)C2 [Example 205, (S)-1′-(5-((2-amino-3-chloropyridin-4-yl)thio)-1H-imidazo[4,5-b]pyrazin-2-yl)-6-methoxy-1,3-dihydrospiro[indene-2,4′-piperidin]-1-amine]
[1]
  IC50: < 0.5 µM
[2]; [3]
  IC50: < 1 µM

## Nc1nccc(Sc2cnc3[nH]c(N4CCC5(CC4)Cc4ccc(CO)cc4[C@H]5N)nc3n2)c1Cl [Example 244, (S)-(1-amino-1′-(5-((2-amino-3-chloropyridin-4-yl)thio)-1H-imidazo[4,5-b]pyrazin-2-yl)-1,3-dihydrospiro[indene-2,4′-piperidin]-6-yl)methanol]
[1]
  IC50: < 0.5 µM
[2]; [3]
  IC50: < 1 µM

## CNc1nccc(Sc2cnc3[nH]c(N4CCC5(CC4)Cc4ccccc4[C@H]5N)nc3n2)c1C#N [Example 201, (S)-4-((2-(1-amino-1,3-dihydrospiro[indene-2,4′-piperidin]-1′-yl)-1H-imidazo[4,5-b]pyrazin-5-yl)thio)-2-(methylamino)nicotinonitrile]
[1]
  IC50: < 0.5 µM
[2]; [3]
  IC50: < 1 µM

## Nc1nccc(Sc2cnc3[nH]c(N4CCC5(CC4)Cc4ccc(Br)cc4[C@H]5N)nc3n2)c1Cl [Example 219, (S)-1′-(5-((2-amino-3-chloropyridin-4-yl)thio)-1H-imidazo[4,5-b]pyrazin-2-yl)-6-bromo-1,3-dihydrospiro[indene-2,4′-piperidin]-1-amine]
[1]
  IC50: < 0.5 µM
[2]; [3]
  IC50: < 1 µM

## N[C@@H]1c2ccccc2CC12CCN(c1nc3nc(Sc4ccnc(NC5CC5)c4Cl)cnc3[nH]1)CC2 [Example 160, (S)-1′-(5-((3-chloro-2-(cyclopropylamino)pyridin-4-yl)thio)-1H-imidazo[4,5-b]pyrazin-2-yl)-1,3-dihydrospiro[indene-2,4′-piperidin]-1-amine]
[1]
  IC50: < 0.5 µM
[2]; [3]
  IC50: < 1 µM

## Nc1nccc(Sc2cnc3[nH]c(N4CCC5(CC4)Cc4ccccc4[C@H]5N)cc3n2)c1Cl [Example 265, (S)-1′-(2-((2-amino-3-chloropyridin-4-yl)thio)-5H-pyrrolo[2,3-b]pyrazin-6-yl)-1,3-dihydrospiro[indene-2,4′-piperidin]-1-amine]
[1]
  IC50: < 0.5 µM
[2]; [3]
  IC50: 1 to 5 µM

## CC1(N)CCN(c2nc3nc(Sc4cccc5cccnc45)cnc3[nH]2)CC1 [Example 88, 4-methyl-1-(5-(quinolin-8-ylthio)-1H-imidazo[4,5-b]pyrazin-2-yl)piperidin-4-amine]
[1]
  IC50: < 0.5 µM
[2]; [3]
  IC50: > 5 µM

## CC1(N)CCN(c2nc3nc(Sc4cccc5nccnc45)cnc3[nH]2)CC1 [Example 71, 4-methyl-1-(5-(quinoxalin-5-ylthio)-1H-imidazo[4,5-b]pyrazin-2-yl)piperidin-4-amine]
[1]
  IC50: < 0.5 µM
[2]; [3]
  IC50: 1 to 5 µM

## COc1ncc(CN)cc1Sc1cnc2[nH]c(N3CCC4(CC3)Cc3ccccc3[C@H]4N)nc2n1 [Example 250, (1S)-1′-[5-[5-(aminomethyl)-2-methoxy-pyridin-3-yl]sulfanyl-1H-imidazo[4,5-b]pyrazin-2-yl]spiro[1,3-dihydroindene-2,4′-piperidine]-1-amine]
[1]
  IC50: > 3 µM
[2]; [3]
  IC50: 1 to 5 µM

## N[C@@H]1c2ccccc2CC12CCN(c1nc3ncc(Sc4ccnc5nccnc45)nc3[nH]1)CC2 [Example 194, (S)-1′-(6-(pyrido[2,3-b]pyrazin-8-ylthio)-1H-imidazo[4,5-b]pyrazin-2-yl)-1,3-dihydrospiro[indene-2,4′-piperidin]-1-amine]
[1]
  IC50: < 0.5 µM
[2]; [3]
  IC50: < 1 µM

## N[C@@H]1CCCC12CCN(c1nc3ncc(Sc4cccc(Cl)c4Cl)nc3[nH]1)CC2 [Example 3, (R)-8-(6-((2,3-dichlorophenyl)thio)-1H-imidazo[4,5-b]pyrazin-2-yl)-8-azaspiro[4.5]decan-1-amine]
[1]
  IC50: < 0.5 µM
[2]; [3]
  IC50: 1 to 5 µM

## CNc1nccc(-c2cnc3[nH]c(N4CCC5(CC4)Cc4ccccc4[C@H]5N)nc3n2)c1Cl [Example 140, (S)-1′-(5-(3-chloro-2-(methylamino)pyridin-4-yl)-1H-imidazo[4,5-b]pyrazin-2-yl)-1,3-dihydrospiro[indene-2,4′-piperidin]-1-amine]
[1]
  IC50: 0.5 to 3 µM
[2]; [3]
  IC50: > 5 µM

## CNc1nccc(Sc2cnc3[nH]c(N4CCC5(CC4)Cc4ccccc4[C@H]5N)nc3n2)c1Cl [Example 130, (S)-1′-(6-((3-chloro-2-(methylamino)pyridin-4-yl)thio)-1H-imidazo[4,5-b]pyrazin-2-yl)-1,3-dihydrospiro[indene-2,4′-piperidin]-1-amine]
[1]
  IC50: < 0.5 µM
[2]; [3]
  IC50: < 1 µM

## N[C@@H]1c2ccccc2CC12CCN(c1nc3nc(Sc4ccn[nH]c4=O)cnc3[nH]1)CC2 [Example 234, (S)-4-((2-(1-amino-1,3-dihydrospiro[indene-2,4′-piperidin]-1′-yl)-1H-imidazo[4,5-b]pyrazin-5-yl)thio)pyridazin-3(2H)-one]
[1]
  IC50: < 0.5 µM
[2]; [3]
  IC50: < 1 µM

## COc1cnccc1Sc1cnc2nc(N3CCC4(CC3)Cc3ccccc3[C@H]4N)[nH]c2n1 [Example 177, (S)-1′-(6-((3-methoxypyridin-4-yl)thio)-1H-imidazo[4,5-b]pyrazin-2-yl)-1,3-dihydrospiro[indene-2,4′-piperidin]-1-amine]
[1]
  IC50: < 0.5 µM
[2]; [3]
  IC50: < 1 µM

## CN1C(=O)C(F)(F)c2c(Sc3cnc4[nH]c(N5CCC6(CC5)Cc5ccccc5[C@H]6N)nc4n3)cccc21 [Example 134, (S)-4-((2-(1-amino-1,3-dihydrospiro[indene-2,4′-piperidin]-1′-yl)-1H-imidazo[4,5-b]pyrazin-5-yl)thio)-3,3-difluoro-1-methylindolin-2-one]
[1]
  IC50: < 0.5 µM
[2]; [3]
  IC50: < 1 µM

## COc1nnccc1Sc1cnc2[nH]c(N3CCC4(CC3)Cc3ccccc3[C@H]4N)nc2n1 [Example 236, (S)-1′-(5-((3-methoxypyridazin-4-yl)thio)-1H-imidazo[4,5-b]pyrazin-2-yl)-1,3-dihydrospiro[indene-2,4′-piperidin]-1-amine]
[1]
  IC50: 0.5 to 3 µM
[2]; [3]
  IC50: > 5 µM

## N[C@@H]1c2cc(F)ccc2CC12CCN(c1nc3nc(Sc4cccn5ccnc45)cnc3[nH]1)CC2 [Example 192, (S)-6-fluoro-1′-(5-(imidazo[1,2-a]pyridin-8-ylthio)-1H-imidazo[4,5-b]pyrazin-2-yl)-1,3-dihydrospiro[indene-2,4′-piperidin]-1-amine]
[1]
  IC50: < 0.5 µM
[2]; [3]
  IC50: 1 to 5 µM

## N#Cc1ccc2c(c1)[C@H](N)C1(CCN(c3nc4nc(Sc5ccnc(N)c5Cl)cnc4[nH]3)CC1)C2 [Example 260, (R)-1-amino-1′-(5-((2-amino-3-chloropyridin-4-yl)thio)-1H-imidazo[4,5-b]pyrazin-2-yl)-1,3-dihydrospiro[indene-2,4′-piperidine]-6-carbonitrile]
[1]
  IC50: < 0.5 µM
[2]; [3]
  IC50: < 1 µM

## N[C@@H]1c2ccccc2CC12CCN(c1nc3nc(Sc4ccnc(O)c4Cl)cnc3[nH]1)CC2 [Example 152, (S)-4-((2-(1-amino-1,3-dihydrospiro[indene-2,4′-piperidin]-1′-yl)-1H-imidazo[4,5-b]pyrazin-5-yl)thio)-3-chloropyridin-2-ol]
[1]
  IC50: < 0.5 µM
[2]
  IC50: > 5 µM

## Nc1cc(Sc2cnc3[nH]c(N4CCC5(CC4)Cc4ccccc4[C@H]5N)nc3n2)c(Cl)c(Cl)n1 [Example 266, (S)-1′-(5-((6-amino-2,3-dichloropyridin-4-yl)thio)-1H-imidazo[4,5-b]pyrazin-2-yl)-1,3-dihydrospiro[indene-2,4′-piperidin]-1-amine]
[1]
  IC50: < 0.5 µM
[2]; [3]
  IC50: > 5 µM
